Assay results: patent publication US6087334A, “Anti-diabetic peptides” (Amylin Pharmaceuticals, Inc., priority 1998, dated 2000)
Read-outs that look alike come from different tables or passages of the source. Where no end group is shown, it is not given here.

Tests used:
[1] = tested on: gastric emptying in conscious rats; details: for Inhibition of gastric emptying (in words): conscious rat model
From the text: Peptide compounds of the present invention may be evaluated for amylin agonist activity using the methods of measuring the rate of gastric emptying disclosed in, for example, Young et al., Diabetologia, 38(6):642-648 (1995). In a phenol red method, which is described in Example D below, conscious rats receive by gavage an a caloric gel containing methyl cellulose and a phenol red indicator. Twenty minutes after gavage, animals are anesthetized using halothane, the stomach exposed and clamped at the pyloric and lower esophageal sphincters, removed and opened into an alkaline solution. Stomach content may be derived from the intensity of the phenol red in the alkaline solution, measured by absorbance at a wavelength of 560 nm. In a tritiated glucose method, conscious rats are gavaged with tritiated glucose in water. The rats are gently restrained by the tail, the tip of which is anesthetized using lidocaine. Tritium in the plasma separated from tail blood is collected at various timepoints and detected in a beta counter. Test compounds are normally administered about one minute before gavage.
Phenol Red Gastric Emptying Assay:
Gastric emptying was measured using a modification (Plourde et al., Life Sci. 53:857-862 (1993)) of the original method of Scarpignato et al. (Arch. Int. Pharmacodyn. Ther. 246:286-295 (1980)). Conscious rats received by gavage. 1.5 mL of an a caloric gel containing 1.5% methyl cellulose (M-0262, Sigma Chemical Co., St. Louis, Mo.) and 0.05% phenol red indicator. Twenty minutes after gavage, rats were anesthetized using 5% halothane, the stomach exposed and clamped at the pyloric and lower esophageal sphincters using artery forceps, removed and opened into an alkaline solution which was made up to a fixed volume. Stomach content was derived from the intensity of the phenol red in the alkaline solution, measured by absorbance at a wavelength of 560 nm. […] In other experiments, particulate gastric contents were centrifuged to clear the solution for absorbance measurements. Where the diluted gastric contents remained turbid, the spectroscopic absorbance due to phenol red was derived as the difference between that present in alkaline versus acidified dilutent.
In separate experiments on 7 rats, the stomach and small intestine were both excised and opened into an alkaline solution. […] Percent gastric emptying contents remaining=(absorbance at 20 min)/(absorbance at 0 min). For those compounds for which ED50 data is presented, dose response curves for gastric emptying were fitted to a 4-parameter logistic model using a least-squares iterative routine (ALLFIT, v2.7, NIH, Bethesda, Md.) to derive ED50 s. Because ED50 is log-normally distributed, it is expressed ± standard error of the logarithm. Pairwise comparisons were performed using one-way analysis of variance and the Student-Newman-Keuls multiple comparisons test (Instat v2.0, GraphPad Software, San Diego, Calif.) using P<0.05 as the level of significance.
As a reference point for dose response studies, rat amylin (Bachem, Torrance, Calif.) dissolved in 0.15M saline, was administered as a 0.1 mL subcutaneous bolus in doses of 0, 0.01, 0.1, 1, 10 or 100 μg 5 minutes before gavage in Harlan Sprague Dawley (non-diabetic) rats fasted 20 hours and diabetic BB rats fasted 6 hours.

[2] = in vivo in rats, rabbits and humans with Paget's disease; cited from earlier work

In the case of “Adrenomedullin (YRQSMNNFQGLRSFGCRFGTCTVQKLAHQIYQFTDKDKDNVAPRSKISPQGY; ends and bridges not checked; cysteine pairing not given here; UniProt P35318 95-146, looked up)”, the “Inhibition of gastric emptying (in words)” value (“Inhibition … (in words)” below) ([1]; highest doses (100 μg)) is reported as “does not inhibit gastric emptying”.
For “amylin (KCNTATCATQRLANFLVHSSNNFGAILSSTNVGSNTY-NH2; not fully specified (bridges); cysteine pairing not given here; UniProt P10997 34-70, looked up) [37 amino acid peptide hormone, C-terminus amidated, cysteines 2 and 7 cross-linked; rat or human in b378]”, the “Inhibition … (in words)” value ([1]; dose response) is given as “dose-dependently inhibit gastric emptying” and the “Lowering of plasma calcium” value [2] is given as “up to 20%”.
With rat amylin the “Inhibition … (in words)” value ([1]; dose response) was “dose-dependent suppression of gastric emptying”, the “ED50 for inhibition of gastric emptying” value ([1]; diabetic BB rats fasted 6 hours, subcutaneous bolus 5 minutes before gavage) was 2.2 µg and the “Suppression of gastric emptying” value ([1]; diabetic rats, 10 μg subcutaneous) was “complete”. For the same substance, the “Example D ED50” value ([1]; inhibition of gastric emptying, conscious rats, phenol red, 20 min after gavage) was 0.26 µg and the “Suppression of gastric emptying” value ([1]; normal HSD rats, 1 μg subcutaneous) was “complete”.
In the case of “rat calcitonin (CGNLSTCMLGTYTQDLNKFHTFPQTSIGVGAP; ends and bridges not checked; cysteine pairing not given here; UniProt P01257 85-116, looked up)”, the “Inhibition … (in words)” value ([1]; dose response) is reported as “dose-dependently inhibit gastric emptying”.
For salmon calcitonin, the “Inhibition … (in words)” value ([1]; dose response) was “dose-dependently inhibit gastric emptying”.
